Source: patent US20250074911A1, “MACROCYCLIC BTK INHIBITORS” (Crossfire Oncology Holding B.V., priority 2021, published 2025)
Values joined by “and” are separate entries in the source; they are usually repeats but may differ in a detail not shown here. Equal entries are not always repeated.

Experiments:
[1] = biological target: full-length wt-BTK enzyme (Homo sapiens (Human), UniProt Q06187); assay: Biochemical kinase assay wt-BTK (IMAP)
Summary of the method: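 IMAP fluorescence polarization assay: 1.2 nM enzyme pre-incubated 1 h with compound at room temperature, then 50 nM fluorescein-labeled MBP-derived peptide and 4 μM ATP added. Reaction ran 2 h at room temperature in the dark before quenching with IMAP binding solution.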

[2] = biological target: full-length BTK C481S enzyme (Homo sapiens (Human), UniProt Q06187, C481S); assay: Biochemical kinase assay BTK C481S (IMAP)
Chain of full-length BTK C481S enzyme (Q06187 whole entry C481S): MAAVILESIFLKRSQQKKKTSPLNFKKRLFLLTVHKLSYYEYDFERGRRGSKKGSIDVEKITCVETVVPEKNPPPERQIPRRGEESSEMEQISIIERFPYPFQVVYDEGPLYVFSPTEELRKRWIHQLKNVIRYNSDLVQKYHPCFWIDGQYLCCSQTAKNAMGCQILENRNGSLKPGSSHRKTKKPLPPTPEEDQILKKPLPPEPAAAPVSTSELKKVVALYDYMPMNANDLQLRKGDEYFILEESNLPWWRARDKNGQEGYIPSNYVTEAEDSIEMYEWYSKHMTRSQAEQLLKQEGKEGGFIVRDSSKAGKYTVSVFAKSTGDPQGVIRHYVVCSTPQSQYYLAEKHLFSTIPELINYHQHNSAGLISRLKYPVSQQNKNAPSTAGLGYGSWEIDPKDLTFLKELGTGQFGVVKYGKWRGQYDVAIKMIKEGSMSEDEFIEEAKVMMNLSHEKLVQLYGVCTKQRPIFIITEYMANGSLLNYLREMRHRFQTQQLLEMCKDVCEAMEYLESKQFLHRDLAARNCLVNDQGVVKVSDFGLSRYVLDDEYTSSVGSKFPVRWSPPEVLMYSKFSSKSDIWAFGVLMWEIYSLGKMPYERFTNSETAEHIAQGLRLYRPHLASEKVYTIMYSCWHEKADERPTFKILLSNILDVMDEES
Summary of the method: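 Full-length BTK C481S (1.2 nM) was pre-incubated with compound for 1 h at room temperature in the dark, then reacted with fluorescein-labelled MBP-derived peptide (50 nM) and ATP (7 μM) for 2 h. Reactions were quenched with IMAP binding solution, and IC50 values were derived from fluorescence polarization.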

[3] = system: wt-REC-1 mantle cell lymphoma cells; assay: Cell proliferation assay wt-REC-1 (ATPlite, 72 hours); format: cell-based; details: 72 h; read-out: IC50 wt-REC-1
Summary of the method: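 Luminescent viability read over 72 h, start-of-incubation signal recorded separately to separate growth from cell death. Percentage growth referenced to compound-free 0.3% DMSO wells; IC50 from 4-parameter logistic fit.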

REC-1 T474I cell lines = assay: Cell proliferation assay REC-1 BTK T474I knock-in cells (ATPlite, 72 hours); format: cell-based; details: Homo sapiens, Rec1; 72 hours; read-out: IC50 REC-1 T474I
Summary of the method: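 REC-1 cells carrying CRISPR knock-in mutant BTK, single-cell cloned and sequence-confirmed, were exposed to compound for 72 h and read by ATPlite luminescence. Percentage growth was calculated against the signal at the start of incubation and against untreated 0.3% DMSO wells as maximum growth.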

wt-BTK = wt-BTK (Homo sapiens (Human), UniProt Q06187); assay: Binding kinetics measurements (Surface Plasmon Resonance) on wt-BTK; details: for Kd: binding affinity by Surface Plasmon Resonance (SPR); for Tau (h) wt-BTK (Act): target residence time, SPR
Chain of wt-BTK (Q06187 whole entry): as the sequence (Q06187 whole entry C481S) above, with S481C counted along it
Summary of the method: (§1)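 Biotinylated BTK captured on streptavidin chips (4° C; free streptavidin blocked with biocytin); runs at 22° C in buffer with 1% DMSO, 30 μl/min. Single cycle kinetics, five injections rising over 3.16-316 nM; double-referenced sensorgrams fitted, two-state model for induced fit, duplicate constants geometrically averaged.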

BTK C481S = BTK C481S (Homo sapiens (Human), UniProt Q06187, C481S); assay: Binding kinetics measurements (Surface Plasmon Resonance) on BTK C481S; details: for Kd: binding affinity by Surface Plasmon Resonance (SPR); for Tau (h) BTK C418S (Act): target residence time for BTK C481S, SPR
Chain of BTK C481S (Q06187 whole entry C481S): as the sequence (Q06187 whole entry C481S) above
Summary of the method: as §1

BTK T316A = BTK T316A (Homo sapiens (Human), UniProt Q06187, T316A); assay: Binding kinetics measurements (Surface Plasmon Resonance) on BTK T316A; details: for Kd: binding affinity by Surface Plasmon Resonance (SPR); for Tau (h) BTK T316A (Act): target residence time, SPR
Chain of BTK T316A (Q06187 whole entry T316A): as the sequence (Q06187 whole entry C481S) above, with T316A, S481C counted along it
Description: (§2) Binding kinetics measurements on wt-BTK, BTK […], BTK […], BTK […] and BTK […] (Surface Plasmon Resonance) Streptavidin-coated chips (Cat. No. BR100531), disposables and maintenance kits for Biacore were purchased from Cytiva (Eindhoven, The Netherlands). […] Remaining streptavidin was blocked with biocytin. Immobilization was performed at 4° C. Subsequent assay steps were conducted at 22° C. After changing buffer to Biacore buffer with 1% (v/v) dimethylsulfoxide (DMSO), a pre-run was performed for a period of at least 30 min at a flow rate of 30 μl/min to obtain a stable surface. The kinetic constants of the compounds were determined with single cycle kinetics with five consecutive injections with an increasing compound concentration with ranges of 3.16-316 nM. […] To circumvent problems of mass transport limitation, a flow rate of 30 μl/min was used. A blank run with the same conditions was performed before the compound was injected. The SPR sensorgrams were analyzed with Biacore Evaluation Software by using a method of double referencing. First the reference channel was subtracted from the channel containing immobilized protein. Subsequently, the reference curve obtained with buffer injections was subtracted. […] Compounds that bound according to an induced fit model were fitted with a two-state reaction model. The kinetic constants (ka, […], KD) of duplicates were geometrically averaged. […] Target residence for an induced fit model was calculated as described (Tummino and Copeland, 2008).

BTK T474I = BTK T474I (Homo sapiens (Human), UniProt Q06187, T474I); assay: Binding kinetics measurements (Surface Plasmon Resonance) on BTK T474I; details: for Kd: binding affinity by Surface Plasmon Resonance (SPR); for Tau (h) BTK T474I (Act): target residence time, SPR
Chain of BTK T474I (Q06187 whole entry T474I): as the sequence (Q06187 whole entry C481S) above, with T474I, S481C counted along it
Summary of the method: as §1

BTK T474S = BTK T474S (Homo sapiens (Human), UniProt Q06187, T474S); assay: Binding kinetics measurements (Surface Plasmon Resonance) on BTK T474S; details: for residence time: SPR binding kinetics, BTK T474S, read-out: Tau (h) BTK T474S (Act), target residence time (converted); for Kd: binding affinity by Surface Plasmon Resonance (SPR)
Chain of BTK T474S (Q06187 whole entry T474S): as the sequence (Q06187 whole entry C481S) above, with T474S, S481C counted along it
Description: as §2

[4] = system: wt-TMD8 diffuse large B-cell lymphoma cells; assay: Cell proliferation assay wt-TMD8 (ATPlite, 120 hours); format: cell-based; details: B-cell; wt-TMD8 cells, 120 hours, ATPlite; read-out: IC50 wt-TMD8
Summary of the method: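 wt-TMD8 DLBCL cells, 1600 per well in RPMI-1640 with 10% FBS, rested ≥5 h then exposed to compound for 120 h at 37° C, 5% CO2. Viability read by ATPlite luminescence; percentage growth calculated relative to start-of-incubation signal and untreated 0.3% DMSO maximum growth.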

Chain of full-length wt-BTK enzyme (Q06187 whole entry): as the sequence (Q06187 whole entry C481S) above, with S481C counted along it

Row | SMILES | IC50 [1] [nM] | IC50 [2] [nM] | IC50 [3] [nM] | IC50 (REC-1 T474I cell lines) [nM] | Kd (wt-BTK) [nM] | Tau (h) wt-BTK (Act) (wt-BTK) [h] | Kd (BTK C481S) [nM] | Tau (h) BTK C418S (Act) (BTK C481S) [h] | Kd (BTK T316A) [nM] | Tau (h) BTK T316A (Act) (BTK T316A) [h] | Kd (BTK T474I) | residence time (BTK T474S) [h] | Kd (BTK T474S) [nM] | IC50 [4] [nM] | Tau (h) BTK T474I (Act) (BTK T474I) [h]
1 | Nc1ncc2c3c1c(-c1ccc(C(=O)Nc4cc(C(F)(F)F)ccn4)cc1)nn3[C@@H]1CCC[C@H](C1)NC(=O)COCC/C=C/2 [Example 6] | < 5 | < 5 | < 100 | 100 to 500 | < 5 | 6.80 | < 5 | 2.91 | < 5 | 2.28 | < 2 nM | 4.41 | < 3 | < 100 | 
2 | Nc1ncc2c3c1c(-c1ccc(C(=O)Nc4cc(C(F)(F)F)ccn4)cc1F)nn3[C@@H]1CCC[C@H](C1)NC(=O)CCC/C=C/2 [Example 7] | < 5 | < 5 | < 100 | 500 to 10000 | < 5 | 2.57 | < 5 | 4.50 | < 5 | 2.03 | < 2 nM | 4.98 | < 3 | < 100 | 
3 | Nc1ncc2c3c1c(-c1ccc(C(=O)Nc4cc(C(F)(F)F)ccn4)cc1F)nn3[C@@H]1CCC[C@H](C1)NC(=O)CNC/C=C/2 [Example 8] | < 5 | < 5 | 100 to 1000 | 500 to 10000 | < 5 | 2.25 | < 5 | 3.30 | < 5 | 1.30 | 10 to 50 nM and < 5 nM | 3.17 | < 3 | < 100 | 
4 | CN1C/C=C/c2cnc(N)c3c(-c4ccc(C(=O)Nc5cc(C(F)(F)F)ccn5)cc4)nn(c23)[C@@H]2CCC[C@H](C2)NC(=O)C1 [Example 9] | < 5 | < 5 | 100 to 1000 | 500 to 10000 | < 5 | 1.02 | < 5 | 2.60 | < 5 |  | 10 to 50 nM and < 5 nM | 1.53 | < 3 | < 100 | 
5 | CN1C/C=C/c2cnc(N)c3c(-c4ccc(C(=O)Nc5cc(C(F)(F)F)ccn5)cc4)nn(c23)[C@@H]2CCC[C@H](C2)NC(=O)CCC1 [Example 10] | < 5 | < 5 | < 100 | 500 to 10000 | < 5 | 6.77 | < 5 | 6.76 | < 5 | 1.76 | < 2 nM | 9.46 | < 3 | < 100 | 
6 | CN1C/C=C/c2cnc(N)c3c(-c4ccc(C(=O)Nc5cc(C(F)(F)F)ccn5)cc4)nn(c23)[C@@H]2CCC[C@H](C2)NC(=O)CC1 [Example 17] | < 5 | < 5 | < 100 | < 100 | < 5 | 5.24 | < 5 | 14.35 | < 5 | 3.60 | < 2 nM | 8.71 | < 3 | < 100 | 1.12
7 | CN1C/C=C/c2cnc(N)c3c(-c4ccc(C(=O)Nc5cc(C(F)(F)F)ccn5)cc4)nn(c23)[C@@H]2CCC[C@H](C2)NC(=O)CCCC1 [Example 20] | < 5 | < 5 | 100 to 1000 | 500 to 10000 | < 5 | 2.79 | < 5 | 1.05 | < 5 | 2.01 | < 2 nM | 2.75 | < 3 | < 100 | 
8 | Nc1ncc2c3c1c(-c1ccc(C(=O)Nc4cc(C(F)(F)F)ccn4)cc1)nn3[C@@H]1CCC[C@H](C1)NC(=O)CCNC/C=C/2 [Example 21] | < 5 | < 5 | < 100 | 100 to 500 | < 5 | 4.34 | < 5 | 7.53 | < 5 | 3.89 | < 2 nM | 3.59 | < 3 | < 100 | 
9 | Nc1ncc2c3c1c(-c1ccc(C(=O)Nc4ccccn4)cc1)nn3C1CCC[C@H](C1)NC(=O)CCCCC/C=C/2 [Example 24] | < 5 | < 5 | < 100 | < 100 |  | 4.78 |  | 10.68 |  | 2.66 |  | 3.19 |  | < 100 | 1.26
10 | Nc1ncc2c3c1c(-c1ccc(C(=O)Nc4cc(C(F)(F)F)ccn4)cc1)nn3[C@@H]1CCC[C@H](C1)NC(=O)CCOCC/C=C/2 [Example 26] | < 5 | < 5 | < 100 | < 100 | < 5 | 5.89 | < 5 | 6.65 | < 5 | 3.22 | < 2 nM | 1.79 | < 3 | < 100 | 5.95
11 | Nc1ncc2c3c1c(-c1ccc(C(=O)Nc4cc(C(F)(F)F)ccn4)cc1)nn3[C@@H]1CCC[C@H](C1)NC(=O)CCCOC/C=C/2 [Example 27] | < 5 | < 5 | < 100 | < 100 | < 5 | 5.05 | < 5 | 2.04 | < 5 | 3.37 | < 2 nM | 4.09 | < 3 | < 100 | 2.55
12 | C[C@H]1OC/C=C/c2cnc(N)c3c(-c4ccc(C(=O)Nc5cc(C(F)(F)F)ccn5)cc4)nn(c23)[C@@H]2CCC[C@H](C2)NC1=O [Example 28] | < 5 | < 5 | < 100 | 100 to 500 | < 5 | 4.52 | < 5 | 4.03 | < 5 | 1.43 | < 2 nM | 3.77 | < 3 | < 100 | 0.73
13 | C[C@@H]1CCn2nc(-c3ccc(C(=O)Nc4cc(C(F)(F)F)ccn4)cc3)c3c(N)ncc(c32)/C=C/CCCCC(=O)N1 [Example 54] |  |  | < 100 | 100 to 500 | < 5 |  | < 5 |  | < 5 |  | < 2 nM | 4.37 | < 3 | < 100 | 
